Assay results published in ChEMBL document CHEMBL4145596, “Design, Synthesis, and X-ray of Selenides as New Class of Agents for Prevention of Diabetic Cerebrovascular Pathology” (ACS Med Chem Lett, 2018).
Active and inactive are the calls of the source. No cut-off for these calls is given here.

Columns and labels:
Carbonic anhydrase 9 = Carbonic anhydrase 9 (Homo sapiens, UniProt Q16790)
Description: Inhibition of human carbonic anhydrase 9 after 15 mins by stopped flow carbon dioxide hydration assay

RBE4 [1] = assay: Cytotoxicity against rat RBE4 cells assessed as mortality at 10 uM after 24 hrs by MTT assay; format: cell-based; conditions: rbe4, 24 h
RBE4 [2] = assay: Protection against glucose oxidase-induced oxidative stress in rat RBE4 cells assessed as increase in cell viability at 10 to 100 uM cotreated with glucose oxidase for 1 hr measured after 24 hrs by MTT assay; format: functional, cell-based
RBE4 [3] = assay: Protection against glucose oxidase-induced oxidative stress in rat RBE4 cells assessed as increase in cell viability at 100 uM cotreated with glucose oxidase for 1 hr measured after 24 hrs by MTT assay; format: functional, cell-based
RBE4 [4] = assay: Cytotoxicity against rat RBE4 cells assessed as mortality at 30 uM after 24 hrs by MTT assay; format: cell-based; conditions: rbe4, 24 h

SMILES	Ki (Carbonic anhydrase 9)	Activity (RBE4 [1])	further results
C=CC[Se]c1ccc(S(N)(=O)=O)cc1	2.6 nM		
NS(=O)(=O)c1ccc([Se]CCO)cc1	2.4 nM	Non-Toxic	Activity (RBE4 [2]): inactive
CC#CC[Se]c1ccc(S(N)(=O)=O)cc1	2.2 nM		
COCC[Se]c1ccc(S(N)(=O)=O)cc1	12 nM	Non-Toxic	Activity (RBE4 [3]): Active
NS(=O)(=O)c1ccc([Se]C2CCCCC2)cc1	2.6 nM		
NS(=O)(=O)c1ccc(C[Se]c2ccccc2)cc1	2.7 nM		
C[Se]c1ccc(S(N)(=O)=O)cc1	2.7 nM		
NS(=O)(=O)c1ccc([Se][Se]c2ccc(S(N)(=O)=O)cc2)cc1			mortality (RBE4 [4]): 50%
CC(C)[Se]c1ccc(S(N)(=O)=O)cc1	2.4 nM	Non-Toxic	Activity (RBE4 [2]): inactive
NS(=O)(=O)c1ccc([Se]CCc2ccccc2)cc1	8.7 nM		
CCCCC[Se]c1ccc(S(N)(=O)=O)cc1	2.6 nM	Non-Toxic	Activity (RBE4 [2]): inactive
C#CC[Se]c1ccc(S(N)(=O)=O)cc1	2.7 nM		
